Assay results published in patent publication US6346260B1, “Microbicidal active ingredients” (Ciba Specialty Chemicals Corporation, priority 1999, dated 2002).

Key:
Format in all cases: cell-based
[1] = system: Escherichia coli NCTC 8196; assay: MIC in microtitre plates, Escherichia coli; settings: Escherichia coli, NCTC8196; Table 1; NCTC 8196; 48 hours at 37° C.; ≦20% growth; read-out: MIC Escherichia coli
Description: (§1) Determination of Antimicrobial Activity in Accordance with the Microtitre Plate Method Determination of the Minimum Inhibitory Concentration (MIC value) in Microtitre Plates casein-soybean flour-peptone bouillon for the preparation of the precultures of the test bacteria and yeast. Escherichia coli NCTC 8196 The test substances are predissolved in dimethyl sulfoxide (DMSO) and tested in a dilution series of 1:2. Bacteria and yeast are cultured overnight in CASO bouillon, the mould on mycological slant agar and rinsed off with 10 ml of 0.85% sodium chloride solution (+0.1% TritonX-100). All test organisms are adjusted to an organism count of 1-5*10^6 CFU/ml with 0.85% sodium chloride solution. The test substances are prepipetted into microtitre plates in an amount of 8 μl per well. Previously diluted test organism suspensions are diluted 1:100 in CASO bouillon (bacteria and yeast) and Sabouraud 2% glucose bouillon (mould) and added to the test substances in an amount of 192 μl per well. The test batches are incubated for 48 hours at 37° C. (bacteria and yeast) or for 5 days at 28° C. (mould). After incubation, the growth is determined by reference to the turbidity of the test batches (optical density) at 620 nm in a microplate reader. The minimum inhibitory concentration (MIC value) is the concentration of substance at which (compared with the growth of the control) an appreciable inhibition of the growth (≦20% growth) of the test organisms is ascertained. One microtitre plate is used for each test organism and substance concentration. All substances are tested in duplicate.

[2] = system: Pseudomonas aeruginosa CIP A-22; assay: MIC in microtitre plates, Pseudomonas aeruginosa; settings: Pseudomonas aeruginosa, CIPA22; Table 1; CIP A-22; 48 hours at 37° C.; ≦20% growth; read-out: MIC Pseudomonas aeruginosa
Description: as §1, with “Pseudomonas aeruginosa CIP A-22” for “Escherichia coli NCTC 8196”

[3] = system: Rhizopus stolonifer DSM 63011; assay: MIC in microtitre plates, Rhizopus stolonifer; settings: DSM63011, 120 h, Table 1, 5 days at 28° C., ≦20% growth
Description: as §1, with “Mycological slant agar” for “casein-soybean flour-peptone bouillon”, “preculture” for “preparation”, “moulds. Rhizopus stolonifer DSM 63011” for “the precultures of the test bacteria and yeast. Escherichia coli NCTC 8196”, “The minimum inhibitory concentration (MIC value) is the concentration of substance at which (compared with the growth of the control) an appreciable inhibition of the growth (≦20% growth) of the test organisms is ascertained. One microtitre plate is used for each test organism and substance concentration. All substances are tested in duplicate.” left out

[4] = system: Penicillium expansum ATCC 36200; assay: MIC in microtitre plates, Penicillium expansum; settings: ATCC36200, 120 h, Table 1, 5 days at 28° C., ≦20% growth
Description: as §1, with “Mycological slant agar” for “casein-soybean flour-peptone bouillon”, “preculture” for “preparation”, “moulds. Penicillium expansum ATCC 36200” for “the precultures of the test bacteria and yeast. Escherichia coli NCTC 8196”, “The minimum inhibitory concentration (MIC value) is the concentration of substance at which (compared with the growth of the control) an appreciable inhibition of the growth (≦20% growth) of the test organisms is ascertained. One microtitre plate is used for each test organism and substance concentration. All substances are tested in duplicate.” left out

- MIC [1]: 50 µg/mL
- MIC [2]: > 1000 µg/mL
- MIC [3]: 50 µg/mL
- MIC [4]: 100 µg/mL
SMILES: O=C(CC(=O)c1ccccc1O)c1ccco1 [Compound of formula (101)]
